Data taken from patent US9499550B2 (BRISTOL-MYERS SQUIBB COMPANY, priority 2012, dated 2016).
Read-outs that look alike come from different tables or passages of the source.

Columns and labels:
[1] = test system: HCV genotype 1b (Con1) replicon in HUH-7 cells; assay: HCV replicon luciferase reporter assay, genotype 1b; type: cell-based; settings: Hepatitis C virus, Huh-7, 72 h, 3 days incubation
How it was run: (§1)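 Replicon inhibition for both genotypes was measured as Renilla luciferase signal (EnduRen, 7.5 μM final, 2 h) after 3-day, 37° C exposure of replicon-bearing HUH-7 cells in 4% FCS DMEM, 0.5% DMSO. The 1b construct carries S1179I; the 1a H77 construct carries P1496L and S2204I. Twenty-point, 3-fold dilutions were fitted four-parametrically for EC50, and CC50 was taken from multiplexed Cell Titer-Blue.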

[2] = test system: HCV genotype 1a (H77 strain) replicon in HUH-7 cells; assay: HCV replicon luciferase reporter assay, genotype 1a; type: cell-based; settings: Hepatitis C virus, Huh-7, 72 h, 3 days incubation
How it was run: as §1

[3] = HCV genotype 1b replicon luciferase assay, range class, read-out: LE_1b (EC50, range)
[4] = HCV genotype 1a replicon luciferase assay, range class, read-out: LE_1a (EC50, range)
[5] = HCV genotype 1b replicon luciferase, read-out: LE_1b (EC50, range)
[6] = HCV genotype 1a replicon luciferase, read-out: LE_1a (EC50, range)

| Compound | EC50 [1, 3] [nM] | EC50 [2, 4] [nM] | EC50 [1, 5] [nM] | EC50 [2, 6] [nM] | also measured |
| --- | --- | --- | --- | --- | --- |
| COCCn1nc(O[C@@H]2C[C@H]3C(=O)N[C@]4(C(=O)NS(=O)(=O)C5(C)CC5)C[C@H]4/C=C\CC[C@H](C)C[C@@H](C)[C@H](NC(=O)OC(C)(C)C(C)(F)F)C(=O)N3C2)c2ccccc2c1=O [Compound 1019, 3,3-difluoro-2-methylbutan-2-yl((2R,6S,7R,9S,13aS,14aR,16aS,Z)-2-((3-(2-methoxyethyl)-4-oxo-3,4-dihydrophthalazin-1-yl)oxy)-7,9-dimethyl-14a-(((1-methylcyclopropyl)sulfonyl)carbamoyl)-5,16-dioxo-1,2,3,5,6,7,8,9,10,11,13a,14,14a,15,16,16a-hexadecahydrocyclopropa[e]pyrrolo[1,2-a][1,4]diazacyclopentadecin-6-yl)carbamate] | > 87.4 | > 87.4 |  |  | EC50 ([1]; HCV genotype 1b replicon luciferase assay, read-out: LE_1b (EC50)): 506 nM; EC50 ([2]; HCV genotype 1a replicon luciferase assay, read-out: LE_1a (EC50)): ≥ 1000 nM |
| C[C@@H]1CC/C=C\[C@@H]2C[C@@]2(C(=O)NS(=O)(=O)C2(CF)CC2)NC(=O)[C@@H]2C[C@@H](Oc3ncc(N4CCOCC4)c4ccccc34)CN2C(=O)[C@@H](NC(=O)OC(C)(C)C)[C@H](C)C1 [Compound 5443, tert-butyl ((2R,6S,7R,9R,13aS,14aR,16aS,Z)-14a-(((1-(fluoromethyl)cyclopropyl)sulfonyl)carbamoyl)-7,9-dimethyl-2-((4-morpholinoisoquinolin-1-yl)oxy)-5,16-dioxo-1,2,3,5,6,7,8,9,10,11,13a,14,14a,15,16,16a-hexadecahydrocyclopropa[e]pyrrolo[1,2-a][1,4]diazacyclopentadecin-6-yl)carbamate] |  |  | 0.51 to 1 | 1.01 to 5 |  |
| CCCOc1cnc(O[C@@H]2C[C@H]3C(=O)N[C@]4(C(=O)NS(=O)(=O)C5(C)CC5)C[C@H]4/C=C\CC[C@H](C)C[C@@H](C)[C@H](NC(=O)OCC4(C)CC4)C(=O)N3C2)c2ccccc12 [Compound 5082, (1-methylcyclopropyl)methyl ((2R,6S,7R,9S,13aS,14aR,16aS,Z)-7,9-dimethyl-14a-(((1-methylcyclopropyl)sulfonyl)carbamoyl)-5,16-dioxo-2-((4-propoxyisoquinolin-1-yl)oxy)-1,2,3,5,6,7,8,9,10,11,13a,14,14a,15,16,16a-hexadecahydrocyclopropa[e]pyrrolo[1,2-a][1,4]diazacyclopentadecin-6-yl)carbamate] |  |  | 4.82 to 103 | > 87.4 | EC50 ([1]; HCV genotype 1b replicon luciferase, read-out: LE_1b (EC50)): 45.5 nM; EC50 ([2]; HCV genotype 1a replicon luciferase, read-out: LE_1a (EC50)): 198 nM |
| COc1ccc2c(O[C@@H]3C[C@H]4C(=O)N[C@]5(C(=O)NS(=O)(=O)C6CC6)C[C@H]5/C=C\CC[C@@H](C)C[C@@H](C)[C@H](NC(=O)OC(C)(C)C)C(=O)N4C3)nc(-c3ccc(OC(C)C)cc3)nc2c1 [Compound 3017, tert-butyl ((2R,6S,7R,9R,13aS,14aR,16aS,Z)-14a-((cyclopropylsulfonyl)carbamoyl)-2-((2-(4-isopropoxyphenyl)-7-methoxyquinazolin-4-yl)oxy)-7,9-dimethyl-5,16-dioxo-1,2,3,5,6,7,8,9,10,11,13a,14,14a,15,16,16a-hexadecahydrocyclopropa[e]pyrrolo[1,2-a][1,4]diazacyclopentadecin-6-yl)carbamate] | < 5.46 | < 5.46 |  |  |  |
| COc1ccc2nc(C)c(O[C@@H]3C[C@H]4C(=O)N[C@]5(C(=O)NS(=O)(=O)C6(CF)CC6)C[C@H]5/C=C\CC[C@@H](C)C[C@@H](C)[C@H](NC(=O)OC(C)(C)C)C(=O)N4C3)nc2c1 [Compound 4222, tert-butyl (2R,6S,7R,9R,13aS,14aR,16aS,Z)-14a-(1-(fluoromethyl)cyclopropylsulfonylcarbamoyl)-2-(7-methoxy-3-methylquinoxalin-2-yloxy)-7,9-dimethyl-5,16-dioxo-1,2,3,5,6,7,8,9,10,11,13a,14,14a,15,16,16a-hexadecahydrocyclopropa[e]pyrrolo[1,2-a][1,4]diazacyclopentadecin-6-ylcarbamate] |  |  | < 5.46 | < 5.46 |  |
| CCOc1ccc2c(O[C@@H]3C[C@H]4C(=O)N[C@]5(C(=O)NS(=O)(=O)C6CC6)C[C@H]5/C=C\CC[C@@H](C)C[C@@H](C)[C@H](NC(=O)OC(C)(C)C)C(=O)N4C3)nccc2c1 [Compound 5128, tert-butyl ((2R,6S,7R,9R,13aS,14aR,16aS,Z)-14a-((cyclopropylsulfonyl)carbamoyl)-2-((6-ethoxyisoquinolin-1-yl)oxy)-7,9-dimethyl-5,16-dioxo-1,2,3,5,6,7,8,9,10,11,13a,14,14a,15,16,16a-hexadecahydrocyclopropa[e]pyrrolo[1,2-a][1,4]diazacyclopentadecin-6-yl)carbamate] |  |  | < 5.46 | < 5.46 |  |
| COc1cc(F)cc2c(O[C@@H]3C[C@H]4C(=O)N[C@]5(C(=O)NS(=O)(=O)C6CC6)C[C@H]5/C=C\CC[C@H](C)C[C@@H](C)[C@H](NC(=O)O[C@@H]5C[C@@H]6C[C@@H]6C5)C(=O)N4C3)nccc12 [Compound 3167, (1R,3r,5S)-bicyclo[3.1.0]hexan-3-yl((2R,6S,7R,9S,13aS,14aR,16aS,Z)-14a-((cyclopropylsulfonyl)carbamoyl)-2-((7-fluoro-5-methoxyisoquinolin-1-yl)oxy)-7,9-dimethyl-5,16-dioxo-1,2,3,5,6,7,8,9,10,11,13a,14,14a,15,16,16a-hexadecahydrocyclopropa[e]pyrrolo[1,2-a][1,4]diazacyclopentadecin-6-yl)carbamate] | < 5.46 | 4.82 to 103 |  |  |  |
| COc1ccc2c(O[C@@H]3C[C@H]4C(=O)N[C@]5(C(=O)NS(=O)(=O)C6(CF)CC6)C[C@H]5/C=C\CC[C@@H](C)C[C@@H](C)[C@H](NC(=O)OC(C)(C)C(F)(F)F)C(=O)N4C3)nc(C(F)(F)F)cc2c1 [Compound 1169, 1,1,1-trifluoro-2-methylpropan-2-yl((2R,6S,7R,9R,13aS,14aR,16aS,Z)-14a-(((1-(fluoromethyl)cyclopropyl)sulfonyl)carbamoyl)-2-((6-methoxy-3-(trifluoromethyl)isoquinolin-1-yl)oxy)-7,9-dimethyl-5,16-dioxo-1,2,3,5,6,7,8,9,10,11,13a,14,14a,15,16,16a-hexadecahydrocyclopropa[e]pyrrolo[1,2-a][1,4]diazacyclopentadecin-6-yl)carbamate] | < 5.46 | < 5.46 |  |  |  |
| CC[C@@H]1C[C@H](C)CC/C=C\[C@@H]2C[C@@]2(C(=O)NS(=O)(=O)C2(C)CC2)NC(=O)[C@@H]2C[C@@H](Oc3ncc(C(=O)O)c4cc(OC)ccc34)CN2C(=O)[C@H]1NC(=O)OC(C)(C)C(F)(F)F [Compound 4276, 1-(((2R,6S,7R,9R,13aS,14aR,16aS,Z)-7-ethyl-9-methyl-14a-(((1-methylcyclopropyl)sulfonyl)carbamoyl)-5,16-dioxo-6-((((1,1,1-trifluoro-2-methylpropan-2-yl)oxy)carbonyl)amino)-1,2,3,5,6,7,8,9,10,11,13a,14,14a,15,16,16a-hexadecahydrocyclopropa[e]pyrrolo[1,2-a][1,4]diazacyclopentadecin-2-yl)oxy)-6-methoxyisoquinoline-4-carboxylic acid] |  |  | 35 to 620 | 35 to 620 |  |
| CCOc1ccc2c(O[C@@H]3C[C@H]4C(=O)N[C@]5(C(=O)NS(=O)(=O)C6(CF)CC6)C[C@H]5/C=C\CC[C@@H](C)C[C@@H](C)[C@H](NC(=O)OC(C)(C)C(F)(F)F)C(=O)N4C3)nccc2c1 [Compound 5363, 1,1,1-trifluoro-2-methylpropan-2-yl((2R,6S,7R,9R,13aS,14aR,16aS,Z)-2-((6-ethoxyisoquinolin-1-yl)oxy)-14a-(((1-(fluoromethyl)cyclopropyl)sulfonyl)carbamoyl)-7,9-dimethyl-5,16-dioxo-1,2,3,5,6,7,8,9,10,11,13a,14,14a,15,16,16a-hexadecahydrocyclopropa[e]pyrrolo[1,2-a][1,4]diazacyclopentadecin-6-yl)carbamate] |  |  | 0.51 to 1 | 1.01 to 5 |  |
| CCCOc1cc2c(Cl)cccc2c(O[C@@H]2C[C@H]3C(=O)N[C@]4(C(=O)NS(=O)(=O)C5(C)CC5)C[C@H]4/C=C\CC[C@H](C)C[C@@H](C)[C@H](NC(=O)OC(C)(C)C)C(=O)N3C2)n1 [Compound 1071, tert-butyl ((2R,6S,7R,9S,13aS,14aR,16aS,Z)-2-((5-chloro-3-propoxyisoquinolin-1-yl)oxy)-7,9-dimethyl-14a-(((1-methylcyclopropyl)sulfonyl)carbamoyl)-5,16-dioxo-1,2,3,5,6,7,8,9,10,11,13a,14,14a,15,16,16a-hexadecahydrocyclopropa[e]pyrrolo[1,2-a][1,4]diazacyclopentadecin-6-yl)carbamate] | < 5.46 | < 5.46 |  |  |  |
| CC[C@@H]1C[C@H](C)CC/C=C\[C@@H]2C[C@@]2(C(=O)NS(=O)(=O)C2(C)CC2)NC(=O)[C@@H]2C[C@@H](Oc3nccc4c5c(ccc34)N(C)CCO5)CN2C(=O)[C@H]1NC(=O)OC(C)(C)C(F)(F)F [Compound 5326, 1,1,1-trifluoro-2-methylpropan-2-yl((2R,6S,7R,9R,13aS,14aR,16aS,Z)-7-ethyl-9-methyl-2-((4-methyl-3,4-dihydro-2H-[1,4]oxazino[2,3-f]isoquinolin-7-yl)oxy)-14a-(((1-methylcyclopropyl)sulfonyl)carbamoyl)-5,16-dioxo-1,2,3,5,6,7,8,9,10,11,13a,14,14a,15,16,16a-hexadecahydrocyclopropa[e]pyrrolo[1,2-a][1,4]diazacyclopentadecin-6-yl)carbamate] |  |  | < 5.46 | < 5.46 |  |
